{
  "source": "ChEMBL document CHEMBL1201862",
  "about": "“PubChem BioAssay data set” (2004)",
  "key": {"[1]": {"experiment": "viability of uninfected HEp-2 cells – cell-based, HTS, cytotoxicity control for RSV inhibitor project, dose response (AID 2410)", "format": "functional", "details": "human respiratory syncytial virus"}, "[2]": {"biological_target": "T1, Nuclear receptor subfamily 0 group B member 1 (Homo sapiens, UniProt P51843)", "T1 sequence (P51843 whole entry)": "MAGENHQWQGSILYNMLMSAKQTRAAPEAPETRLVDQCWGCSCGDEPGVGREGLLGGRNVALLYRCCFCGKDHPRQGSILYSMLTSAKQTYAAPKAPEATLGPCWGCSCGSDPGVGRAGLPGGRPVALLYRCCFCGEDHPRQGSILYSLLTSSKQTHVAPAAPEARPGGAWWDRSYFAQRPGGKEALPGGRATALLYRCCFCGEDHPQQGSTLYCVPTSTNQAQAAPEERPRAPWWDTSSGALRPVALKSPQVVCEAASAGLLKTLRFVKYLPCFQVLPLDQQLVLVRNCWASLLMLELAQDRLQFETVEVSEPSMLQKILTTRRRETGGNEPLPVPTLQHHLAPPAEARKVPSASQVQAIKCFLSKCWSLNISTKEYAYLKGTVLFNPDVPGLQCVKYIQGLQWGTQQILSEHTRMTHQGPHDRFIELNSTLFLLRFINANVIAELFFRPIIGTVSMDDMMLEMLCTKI", "format": "functional, cell-based"}, "cells": {"experiment": "cells", "format": "functional, cell-based"}, "[3]": {"experiment": "viability loss in CEM21 cells – cell-based, CellTiter-Glo luminescence, cherry-picked, cytotoxicity control for viral fusion inhibitor project, dose response (AID 652042);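 further: potency for signal decrease meaning cytotoxicity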", "format": "functional"}, "[4]": {"experiment": "HGIII-sPLA2 enzyme inhibition potency – biochemical, QFRET, IC50, dose response (AID 743457);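 further: green fluorescence rise as the enzyme cleaves BODIPY PC-A2 in liposomes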"}, "[5]": {"biological_target": "T2, Scavenger receptor class B member 1 (Mus musculus, UniProt Q61009)", "T2 sequence (Q61009 whole entry)": "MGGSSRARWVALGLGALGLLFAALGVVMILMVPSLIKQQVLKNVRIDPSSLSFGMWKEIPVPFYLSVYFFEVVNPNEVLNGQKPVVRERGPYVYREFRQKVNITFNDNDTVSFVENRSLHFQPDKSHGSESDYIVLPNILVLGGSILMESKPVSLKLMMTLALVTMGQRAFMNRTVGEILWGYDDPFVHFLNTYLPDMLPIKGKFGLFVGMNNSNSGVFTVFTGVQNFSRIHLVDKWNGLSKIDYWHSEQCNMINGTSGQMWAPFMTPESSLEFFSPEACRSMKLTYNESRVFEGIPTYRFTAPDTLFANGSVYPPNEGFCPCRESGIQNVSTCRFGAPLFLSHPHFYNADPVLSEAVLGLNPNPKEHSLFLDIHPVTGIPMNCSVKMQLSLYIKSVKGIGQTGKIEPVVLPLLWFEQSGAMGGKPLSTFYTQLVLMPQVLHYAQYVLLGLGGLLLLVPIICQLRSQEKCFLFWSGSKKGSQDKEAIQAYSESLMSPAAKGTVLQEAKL", "experiment": "mouse SR-BI DiI-HDL transfer blockers – ldlA[mSR-BI] CHO cells, fluorescence plate reader, dry powder, set 9, dose response (AID 623880)", "format": "functional, cell-based"}, "[6]": {"biological_target": "T2, Scavenger receptor class B member 1", "experiment": "blockers of DiI-HDL lipid transfer via SR-BI – cell-based, ldlA[mSR-BI] CHO, DiI fluorescence, dry powder, set 10, dose response (AID 624029)", "format": "functional"}, "[7]": {"experiment": "Luminescence Cell-Based Dose Confirmation HTS to Identify Activators of 5'UTR Stem-Loop Driven Alpha-Synuclein mRNA Translation in H4 Neuroglioblastoma Cells. [Related pubchem assays: 1829 (Project Summary), 1814 (Primary HTS)]", "format": "functional"}, "[8]": {"biological_target": "SWI/SNF-related matrix-associated actin-dependent regulator of chromatin subfamily A member 2 (Homo sapiens, UniProt P51531)", "sequence (P51531 whole entry)": "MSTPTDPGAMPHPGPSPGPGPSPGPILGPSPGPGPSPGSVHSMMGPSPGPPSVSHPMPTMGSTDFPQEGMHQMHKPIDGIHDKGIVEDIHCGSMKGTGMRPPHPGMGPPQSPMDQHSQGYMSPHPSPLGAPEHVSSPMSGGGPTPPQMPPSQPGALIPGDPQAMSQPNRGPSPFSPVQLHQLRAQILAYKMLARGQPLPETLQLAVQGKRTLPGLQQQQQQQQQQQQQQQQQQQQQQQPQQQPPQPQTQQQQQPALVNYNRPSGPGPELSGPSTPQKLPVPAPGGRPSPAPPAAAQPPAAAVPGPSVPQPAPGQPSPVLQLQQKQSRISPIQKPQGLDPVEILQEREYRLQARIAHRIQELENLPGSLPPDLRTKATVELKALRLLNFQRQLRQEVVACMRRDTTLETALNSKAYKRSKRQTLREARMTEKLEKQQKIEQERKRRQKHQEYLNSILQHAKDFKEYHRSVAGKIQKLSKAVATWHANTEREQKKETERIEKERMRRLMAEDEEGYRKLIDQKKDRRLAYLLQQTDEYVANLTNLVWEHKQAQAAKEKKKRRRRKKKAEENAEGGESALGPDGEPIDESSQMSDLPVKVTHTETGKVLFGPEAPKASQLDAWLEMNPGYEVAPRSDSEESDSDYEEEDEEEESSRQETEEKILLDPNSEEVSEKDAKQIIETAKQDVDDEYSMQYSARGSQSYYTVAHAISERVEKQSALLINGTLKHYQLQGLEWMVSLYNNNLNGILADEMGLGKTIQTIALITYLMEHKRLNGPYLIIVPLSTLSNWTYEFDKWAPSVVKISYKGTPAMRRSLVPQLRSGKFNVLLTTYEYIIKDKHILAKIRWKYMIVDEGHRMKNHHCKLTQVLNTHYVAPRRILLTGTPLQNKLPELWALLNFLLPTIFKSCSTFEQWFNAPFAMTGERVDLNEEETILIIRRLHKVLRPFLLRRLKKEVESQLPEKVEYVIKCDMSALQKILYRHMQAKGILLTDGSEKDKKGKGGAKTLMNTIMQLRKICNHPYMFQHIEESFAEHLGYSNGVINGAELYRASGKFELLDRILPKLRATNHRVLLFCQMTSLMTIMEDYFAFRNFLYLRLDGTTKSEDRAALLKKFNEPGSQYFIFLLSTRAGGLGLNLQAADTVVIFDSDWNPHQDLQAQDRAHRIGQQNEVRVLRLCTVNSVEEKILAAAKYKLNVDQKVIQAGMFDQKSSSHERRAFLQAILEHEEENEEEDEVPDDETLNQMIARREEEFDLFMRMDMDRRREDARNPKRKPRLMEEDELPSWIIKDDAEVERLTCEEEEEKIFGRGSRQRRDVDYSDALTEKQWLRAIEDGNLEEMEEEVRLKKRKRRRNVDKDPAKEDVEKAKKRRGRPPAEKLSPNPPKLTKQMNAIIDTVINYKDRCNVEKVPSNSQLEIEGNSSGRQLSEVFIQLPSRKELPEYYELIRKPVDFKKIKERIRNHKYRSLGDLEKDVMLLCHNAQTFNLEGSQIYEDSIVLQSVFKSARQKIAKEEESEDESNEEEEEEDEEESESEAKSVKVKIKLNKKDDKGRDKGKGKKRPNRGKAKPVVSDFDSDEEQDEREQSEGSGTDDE", "experiment": "Luminescence-based cell-based high throughput dose response assay to identify activators of the function of SWI/SNF related, matrix associated, actin dependent regulator of chromatin, subfamily a, member 2 (SMARCA2, BRM).", "format": "functional"}, "[9]": {"experiment": "Luminescence Cell-Based Dose Response HTS to Identify Activators of Luciferase Translation or Activity in H4 […] Cells. [Related pubchem assays: 1829 (Project Summary), 1814 (Primary HTS)]", "format": "functional"}, "[10]": {"experiment": "Counterscreen for activators of the function of SWI/SNF related, matrix associated, actin dependent regulator of chromatin, subfamily a, member 2 (SMARCA2, BRM): Luminescence-based cell-based high throughput dose response assay to identify non-selective compounds using the VP16 reporter assay.", "format": "functional"}, "H4": {"tested_on": "H4", "experiment": "Luminescence Cell-Based Dose Response HTS to Identify Activators of 5'UTR Stem-Loop Driven Prion Protein mRNA Translation in H4 Neuroglioblastoma Cells. [Related pubchem assays: 1829 (Project Summary), 1814 (Primary HTS)]", "format": "functional", "details": "Homo sapiens"}, "[11]": {"biological_target": "T3, Rac GTPase-activating protein 1 (Homo sapiens, UniProt Q9H0H5)", "T3 sequence (Q9H0H5 whole entry)": "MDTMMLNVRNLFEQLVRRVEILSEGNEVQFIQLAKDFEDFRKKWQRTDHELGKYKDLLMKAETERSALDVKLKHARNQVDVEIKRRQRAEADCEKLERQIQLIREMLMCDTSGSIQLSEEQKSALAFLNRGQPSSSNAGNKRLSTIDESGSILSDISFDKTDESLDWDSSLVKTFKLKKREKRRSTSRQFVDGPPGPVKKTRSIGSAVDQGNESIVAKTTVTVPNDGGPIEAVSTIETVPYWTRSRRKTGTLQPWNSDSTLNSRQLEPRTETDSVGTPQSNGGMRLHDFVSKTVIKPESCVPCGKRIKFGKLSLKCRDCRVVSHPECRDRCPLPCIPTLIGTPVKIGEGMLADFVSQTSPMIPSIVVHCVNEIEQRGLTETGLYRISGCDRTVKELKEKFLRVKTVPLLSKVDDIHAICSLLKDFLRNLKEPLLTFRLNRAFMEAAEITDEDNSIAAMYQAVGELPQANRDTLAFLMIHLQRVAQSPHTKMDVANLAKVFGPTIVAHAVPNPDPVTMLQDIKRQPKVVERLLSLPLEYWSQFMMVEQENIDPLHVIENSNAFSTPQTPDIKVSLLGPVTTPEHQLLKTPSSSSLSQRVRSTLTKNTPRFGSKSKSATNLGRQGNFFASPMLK", "experiment": "blockers of MgcRacGAP-driven Rac1 GTP hydrolysis – biochemical, ADP Hunter fluorescence, primary and confirmatory, confirmation (AID 624330)", "format": "functional"}, "[12]": {"experiment": "viability loss in HeLa cells – cytotoxicity control for MgcRacGAP inhibitor project, dose response (AID 624300)", "format": "functional"}, "[13]": {"biological_target": "T4, Probable nicotinate-nucleotide adenylyltransferase (Staphylococcus aureus (strain N315), UniProt P65502)", "T4 sequence (P65502 whole entry)": "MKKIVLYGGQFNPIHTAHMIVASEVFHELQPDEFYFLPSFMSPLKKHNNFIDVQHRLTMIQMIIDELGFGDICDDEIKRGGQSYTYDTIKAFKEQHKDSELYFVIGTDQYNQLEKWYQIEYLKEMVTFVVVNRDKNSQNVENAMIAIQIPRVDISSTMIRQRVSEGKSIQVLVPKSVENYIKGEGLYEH", "format": "functional, Staphylococcus aureus subsp. aureus N315"}, "[14]": {"biological_target": "T5, Low molecular weight phosphotyrosine protein phosphatase (Homo sapiens, UniProt P24666)", "T5 sequence (P24666 whole entry)": "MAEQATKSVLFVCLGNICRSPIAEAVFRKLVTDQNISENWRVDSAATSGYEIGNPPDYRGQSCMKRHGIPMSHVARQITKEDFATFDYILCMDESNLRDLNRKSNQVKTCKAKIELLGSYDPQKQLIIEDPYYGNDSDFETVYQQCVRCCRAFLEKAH", "format": "functional", "details": "read-out: IC50_Mean"}, "[15]": {"biological_target": "T4, Probable nicotinate-nucleotide adenylyltransferase", "format": "functional, Staphylococcus aureus subsp. aureus N315", "details": "read-out: IC50_Mean"}},
  "note": "“And” between values parts separate entries of the source, which are not always exact repeats. Identical values can stand only once. The source made the active and inactive calls.",
  "data": [
    {"smiles": "Cn1ncc(Cl)c1C(=O)Nc1ccc2c(c1)CCC2", "values": [
      {"measurement": "CC50", "setting": "[1]", "result": "41.5 µM (active)"},
      {"measurement": "IC50", "setting": "[2]", "result": "> 67.5 µM (inactive)"},
      {"measurement": "IC50", "setting": "cells", "result": "> 67.5 µM (inactive)"}
    ]},
    {"smiles": "COc1ccc(S(=O)(=O)N2CCCCC2)cc1NC(=O)CN(Cc1ccco1)Cc1ccco1", "values": [
      {"measurement": "AC50", "setting": "[3]", "result": "68.8 µM (active)"}
    ]},
    {"smiles": "O=C(NN=C(S)Nc1cccc(Cl)c1)c1ccccc1OC(F)F", "values": [
      {"measurement": "IC50", "setting": "[4]", "result": "> 122 µM (inactive)"}
    ]},
    {"smiles": "C[C@H](C(=O)NC1CCCC1)N(C(=O)Cn1nnc(-c2ccc3c(c2)OCO3)n1)C1CCCCC1", "values": [
      {"measurement": "AC50", "setting": "[5]", "result": "0.015 µM (active)"},
      {"measurement": "AC50", "setting": "[6]", "result": "12.1 nM (active)"}
    ]},
    {"smiles": "O=C(CNS(=O)(=O)c1ccccc1)OCC(=O)c1ccc(OC(=O)c2ccccc2)cc1", "values": [
      {"measurement": "EC50", "setting": "[7]", "result": "> 120 µM (not active)"},
      {"measurement": "EC50", "setting": "[8]", "result": "> 91.2 µM (inactive)"},
      {"measurement": "EC50", "setting": "[9]", "result": "11.7 µM (active)"},
      {"measurement": "EC50", "setting": "[10]", "result": "> 91.2 µM (inactive)"},
      {"measurement": "EC50", "setting": "H4", "result": "> 120 µM (not active)"}
    ]},
    {"smiles": "CCC(CC)NCc1ccc2c(c1)c1ccccc1n2CC", "values": [
      {"measurement": "IC50", "setting": "[11]", "result": "133 µM (active)"},
      {"measurement": "CC50", "setting": "[12]", "result": "100 µM (active)"}
    ]},
    {"smiles": "COc1ccccc1/C=C/C=N/NC(=O)c1cc(-c2ccco2)[nH]n1", "values": [
      {"measurement": "IC50", "setting": "[13]", "result": "19.5 µM (active)"},
      {"measurement": "IC50", "setting": "[14]", "result": "80 µM (inactive)"},
      {"measurement": "IC50", "setting": "[15]", "result": "41.2 µM (active)"}
    ]},
    {"smiles": "CC(C)NC(=O)Nc1ccc2c(c1)C(=O)N([C@H](C)CO)C[C@@H](C)[C@H](CN(C)S(=O)(=O)c1ccc(Cl)cc1)O2", "values": [
      {"measurement": "AC50", "setting": "[5]", "result": "0.0589 µM (active)"},
      {"measurement": "AC50", "setting": "[6]", "result": "163 nM (active) and 121 nM (active)"}
    ]}
  ]
}
